Laboratory results reported in patent US20210386756A1, “IMPROVEMENTS FOR PERFORMING AND FACILITATING THE RECOVERY AFTER HEMATOPOIETIC STEM CELL TRANSPLANTATION” (Centro de Investigaciones Energéticas, Medioambientales y …, priority 2018, published 2021).

Columns and labels:
[1] = tested on: human hematopoietic progenitors (CB-CD34+); assay: LTC-IC human bone marrow-like co-culture (hMSC + hCD34+) and CFU assay; format: cell-based
Method: LTC-IC was established through the co-culture of human bone marrow Mesenchymal Stromal Cells (BM-MSC) and human progenitors (CB-CD34+) to research the positive effects of the estrogens in a human context, such as an in vitro human bone marrow model. LTC-ICs were treated with vehicle or 100 µM of E2 or E4 for a week. […] Cells were plated in methycellulose media with specific hematopoietic cytokines to evaluate the hematopoietic progenitor content. After 14 days, colony forming units (CFU) were counted. Data were normalized to control groups. […] 1×10^5 human mesenchymal stromal cells (hMSC) were seeded in a p6 well and irradiated with 30 Gy next day. The following day, 5×10^4 hCD34^+ were added to the hMSC in LTC-IC media: 75% α-MEM without Phenol Red (Life Technologies), 12.5% Hyclone FBS (GE Healthcare), HS (Life Technologies), β-mercaptoethanol (Life Technologies), 0.5% PS and 1×10^−6 M Hydrocortisone (Sigma-Aldrich). 100 μM of estrogens, dissolved in ethanol, was added to the co-culture for a week, and then the cells were collected and the amount of human hematopoietic progenitors were evaluated in semisolid media supplement with specific hematopoietic cytokines (H4535, StemCell Technologies) plus 8 U/ml hEPO. After fourteen days, colony-forming units (CFU) were evaluated and normalized to the control: […]

[2] = tested on: mouse MSCs (mCD140a+) and vascular endothelial cells (mCD144+); assay: Mouse BM niche analysis (MSCs and vascular endothelial cells) after transplant and estrogen treatment; format: in vivo; conditions: four months after transplant, versus vehicle-treated animals
Method: FIG. 12 refers to modulation of the hematopoietic niche by estrogens. […] FIG. 12B refers to the relative mouse vascular endothelial cells (mCD144+ or VE-Cadherin+) in the BM of the male mice transplanted with 5×10^4 hCB-CD34+ cells analyzed 4 months after transplantation. […] Data are presented by dots and box-plots that represent the interquartile range (p75, upper edge; p25, lower edge; p50, midline; p95, line above the box; and p5, line below the box). Significance was analyzed by Mann-Whitney U test and represented by **P<0.01.
To provide a further insight into the positive impact of estrogens on promoting human hematopoietic engraftment, we examined mesenchymal and vascular endotelial compartments of the mouse BM niche four months after being transplanted and treated with E2 (estradiol) or E4 (estetrol). The percentage of mouse MSCs (mCD140a+, also called Pdgfra+) and vascular endothelial cells (mCD144+, also called VE-Cadherin+) was analyzed in the non-hematopoietic compartment ([…]).

[3] = biological target: T1, ESRα (Homo sapiens, UniProt P03372); conditions: cited from earlier work
T1 sequence (P03372 1-595): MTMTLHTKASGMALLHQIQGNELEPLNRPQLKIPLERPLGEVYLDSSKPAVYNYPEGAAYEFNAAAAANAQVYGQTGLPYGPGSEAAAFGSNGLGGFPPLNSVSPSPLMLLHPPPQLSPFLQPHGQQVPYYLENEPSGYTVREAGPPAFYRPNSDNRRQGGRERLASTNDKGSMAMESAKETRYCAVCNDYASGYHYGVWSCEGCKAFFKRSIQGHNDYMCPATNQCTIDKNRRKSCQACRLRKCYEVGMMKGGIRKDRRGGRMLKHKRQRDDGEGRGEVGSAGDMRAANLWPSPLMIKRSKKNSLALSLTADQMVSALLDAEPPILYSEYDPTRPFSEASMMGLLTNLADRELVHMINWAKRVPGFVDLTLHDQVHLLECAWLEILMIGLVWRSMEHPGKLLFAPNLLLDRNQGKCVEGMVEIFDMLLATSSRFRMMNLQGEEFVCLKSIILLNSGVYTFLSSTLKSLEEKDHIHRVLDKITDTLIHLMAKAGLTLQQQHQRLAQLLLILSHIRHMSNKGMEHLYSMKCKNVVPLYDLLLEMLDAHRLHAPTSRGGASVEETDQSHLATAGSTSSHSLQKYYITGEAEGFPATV

[4] = relative to other estrogens; cited from earlier work

C[C@]12CC[C@@H]3c4ccc(O)cc4CC[C@H]3[C@@H]1[C@@H](O)[C@@H](O)[C@@H]2O [E4, estetrol]
Normalized human CFU ([1]; 100 μM estrogen for a week, CFU after fourteen days, normalized to control, mean +/− SEM): 1.98 +/− 0.23 (n = 6)
total number of primitive hematopoietic progenitors in LTC-IC ([1]; 100 μM for a week, versus vehicle): almost doubled
number of mCD140a+ cells (mouse MSCs) in BM [2]: increased
affinity for ER relative to β-estradiol [3]: less affinity than β-estradiol
affinity for ESRα versus ESRβ [3]: high affinity for ESRα as compared to the ESRβ
in vivo half-life [4]: considerably longer than that of other estrogens
